This is an account of results in patent US20080312255A1 (ASTRAZENECA AB, priority 2007, published 2008).

S. aureus GyrB ATPase, sequence (P0AES4 whole entry): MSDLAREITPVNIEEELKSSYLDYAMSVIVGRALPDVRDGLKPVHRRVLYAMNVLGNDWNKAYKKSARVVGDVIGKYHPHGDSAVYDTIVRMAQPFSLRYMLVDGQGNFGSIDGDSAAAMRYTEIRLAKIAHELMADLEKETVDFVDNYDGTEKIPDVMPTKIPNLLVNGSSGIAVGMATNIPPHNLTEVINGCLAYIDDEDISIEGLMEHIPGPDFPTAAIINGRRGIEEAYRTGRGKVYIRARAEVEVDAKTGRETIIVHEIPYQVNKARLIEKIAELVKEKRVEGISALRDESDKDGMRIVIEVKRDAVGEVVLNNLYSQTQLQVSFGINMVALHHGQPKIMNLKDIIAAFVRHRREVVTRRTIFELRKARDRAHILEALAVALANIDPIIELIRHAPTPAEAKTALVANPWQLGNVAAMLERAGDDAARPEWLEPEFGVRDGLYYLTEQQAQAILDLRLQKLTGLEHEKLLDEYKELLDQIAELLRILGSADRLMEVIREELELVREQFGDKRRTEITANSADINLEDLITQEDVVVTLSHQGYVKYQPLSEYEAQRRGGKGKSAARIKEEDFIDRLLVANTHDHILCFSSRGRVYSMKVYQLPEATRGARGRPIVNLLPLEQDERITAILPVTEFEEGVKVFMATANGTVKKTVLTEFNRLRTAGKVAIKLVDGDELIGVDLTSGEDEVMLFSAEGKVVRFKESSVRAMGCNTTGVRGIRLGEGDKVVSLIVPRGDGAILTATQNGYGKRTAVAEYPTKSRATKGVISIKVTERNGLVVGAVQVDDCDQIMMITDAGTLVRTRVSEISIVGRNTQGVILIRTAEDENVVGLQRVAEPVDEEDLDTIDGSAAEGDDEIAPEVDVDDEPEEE
S. aureus GyrB ATPase, sequence (P0A0K8 whole entry): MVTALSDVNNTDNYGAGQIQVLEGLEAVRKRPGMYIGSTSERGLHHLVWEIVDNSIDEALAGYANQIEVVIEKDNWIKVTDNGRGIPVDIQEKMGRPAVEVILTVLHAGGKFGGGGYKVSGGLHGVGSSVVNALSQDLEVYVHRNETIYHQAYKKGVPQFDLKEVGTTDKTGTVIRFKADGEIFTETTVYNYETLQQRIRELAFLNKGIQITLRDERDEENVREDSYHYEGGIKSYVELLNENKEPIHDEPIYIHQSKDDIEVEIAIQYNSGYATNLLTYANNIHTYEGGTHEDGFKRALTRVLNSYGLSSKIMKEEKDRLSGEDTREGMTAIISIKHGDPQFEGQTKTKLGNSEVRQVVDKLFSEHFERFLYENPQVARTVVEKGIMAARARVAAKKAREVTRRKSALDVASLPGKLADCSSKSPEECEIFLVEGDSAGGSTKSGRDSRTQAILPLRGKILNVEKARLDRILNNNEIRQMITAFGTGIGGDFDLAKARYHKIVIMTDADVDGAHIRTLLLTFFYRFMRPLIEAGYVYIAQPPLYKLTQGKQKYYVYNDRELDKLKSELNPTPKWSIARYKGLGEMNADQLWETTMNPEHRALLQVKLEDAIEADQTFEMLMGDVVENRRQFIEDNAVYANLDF

This assay has as its target S. aureus GyrB ATPase (Staphylococcus aureus, UniProt P0A0K8). Description: S. aureus GyrB ATPase inhibition (ammonium molybdate/malachite green phosphate detection). Type of assay: biochemical. As to conditions: compound concentration of 1 μM. The procedure, abridged: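 E. coli GyrA and S. aureus GyrB (250 pM each) with sheared salmon sperm DNA and 250 μM ATP, pH 7.5 Hepes buffer. Released phosphate detected by malachite green/ammonium molybdate at 650 nm; percent inhibition at 1 μM compound unless noted, normalized to 2% DMSO (0%) and EDTA (100%) controls.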
As for `CNc1nc(-c2nc(N3CC[C@@H](NC(=O)c4[nH]c(C)c(Cl)c4Cl)[C@@H](F)C3)sc2C(=O)OC)cs1` [Example 75], the inhibition – broadly, the change of the read-out against control, counted positive when it falls – at 1 µM came to 93.1%.
To `COC(=O)c1sc(N2CC[C@@H](NC(=O)c3[nH]c(C)c(Cl)c3Cl)[C@@H](F)C2)nc1-c1csc(N(C)C)n1` [Example 76] belongs 99.2%; to `CCOC(=O)c1sc(N2CC[C@@H](NC(=O)c3[nH]c(C)c(Cl)c3Cl)[C@@H](OC)C2)nc1-c1cn(C)cn1` [Example 77], 100%; to `CCOC(=O)c1sc(N2CC[C@@H](NC(=O)c3[nH]c(C)c(Cl)c3Cl)[C@@H](F)C2)nc1-c1cn(C)cn1` [Example 78], 101%.
For `COC(=O)c1sc(N2CC[C@@H](NC(=O)c3[nH]c(C)c(Cl)c3Cl)[C@@H](F)C2)nc1-c1nccn1C` [Example 79], the inhibition at 1 µM was 101%.
The same measure for `COC(=O)c1sc(N2CC[C@@H](NC(=O)c3[nH]c(C)c(C#N)c3Cl)[C@@H](OC)C2)nc1-c1ncnn1C` [Example 80]: 99.7%.
The same measure for `CCOC(=O)c1sc(N2CC[C@@H](NC(=O)c3[nH]c(C)c(Cl)c3Cl)[C@@H](OC)C2)nc1-c1ccncn1` [Example 81]: 100%; for `COC(=O)c1sc(N2CC[C@@H](NC(=O)c3[nH]c(C)c(Cl)c3Cl)[C@@H](OC)C2)nc1-c1nccc(OC)n1` [Example 82]: 103%; for `CCOC(=O)c1sc(N2CC[C@@H](NC(=O)c3[nH]c(C)c(Cl)c3Cl)[C@@H](OC)C2)nc1-c1nnco1` [Example 83]: 102%.
The same measure for `CCOC(=O)c1sc(N2CC[C@@H](NC(=O)c3[nH]c(C)c(Cl)c3Cl)[C@@H](OC)C2)nc1-c1nc(C)no1` [Example 84]: 103%; for `CCOC(=O)c1sc(N2CC[C@@H](NC(=O)c3[nH]c(C)c(Cl)c3Cl)[C@@H](OC)C2)nc1-c1nnc(C)o1` [Example 85, Ethyl 2-((3S,4R)-4-{[(3,4-dichloro-5-methyl-1H-pyrrol-2-yl)carbonyl]amino}-3-methoxypiperidin-1-yl)-4-(5-methyl-1,3,4-oxadiazol-2-yl)-1,3-thiazole-5-carboxylate]: 102%.
`COC(=O)c1sc(N2CC[C@@H](NC(=O)c3[nH]c(C)c(Cl)c3Cl)[C@@H](OC)C2)nc1-c1ncc[nH]1` [Example 86, Methyl 2-((3S,4R)-4-{[(3,4-dichloro-5-methyl-1H-pyrrol-2-yl)carbonyl]amino}-3-methoxypiperidin-1-yl)-4-(1H-imidazol-2-yl)-1,3-thiazole-5-carboxylate]: the inhibition at 1 µM is 99.9%.
With `COC(=O)c1sc(N2CC[C@@H](NC(=O)c3[nH]c(C)c(Cl)c3Cl)[C@@H](F)C2)nc1-c1ncc[nH]1` [Example 87], the inhibition at 1 µM came to 71%.
The same measure for `CO[C@H]1CN(c2nc(-c3nnc(C)o3)c(C(=O)O)s2)CC[C@H]1NC(=O)c1[nH]c(C)c(Cl)c1Cl` [Example 90, 2-((3S,4R)-4-{[(3,4-Dichloro-5-methyl-1H-pyrrol-2-yl)carbonyl]amino}-3-methoxypiperidin-1-yl)-4-(5-methyl-1,3,4-oxadiazol-2-yl)-1,3-thiazole-5-carboxylic acid]: 101%; for `COC(=O)c1sc(N2CC[C@@H](NC(=O)c3[nH]c(C)c(Cl)c3Cl)[C@@H](OC)C2)nc1-c1cn(C)nn1` [Example 92, methyl 2-((3S,4R)-4-(3,4-dichloro-5-methyl-1H-pyrrole-2-carboxamido)-3-methoxypiperidin-1-yl)-4-(1-methyl-1H-1,2,3-triazol-4-yl)thiazole-5-carboxylate]: 100%.
To `COC(=O)c1sc(N2CC[C@@H](NC(=O)c3[nH]c(C)c(Cl)c3Cl)[C@@H](OC)C2)nc1-c1ncc(C)nc1C` [Example 93, methyl 2-((3S,4R)-4-(3,4-dichloro-5-methyl-1H-pyrrole-2-carboxamido)-3-methoxypiperidin-1-yl)-4-(3,5-dimethylpyrazin-2-yl)thiazole-5-carboxylate] belongs 99.3%.
